US8017611B2, “Pyridine and pyrazine derivatives -083” (AstraZeneca AB, priority 2007, dated 2011)

Each compound was assayed against T1, recombinant Axl tyrosine kinase (Homo sapiens, UniProt P30530) (assay: In vitro Axl kinase assay (AlphaScreen), Test (a)). Conditions: test compound at 1 μM; first value quoted.
T1 construct: encompassing amino acids 473 to 894 of Axl; GST (N); made in house; host or cells: SF126 insect cells
T1 sequence (P30530 473-894): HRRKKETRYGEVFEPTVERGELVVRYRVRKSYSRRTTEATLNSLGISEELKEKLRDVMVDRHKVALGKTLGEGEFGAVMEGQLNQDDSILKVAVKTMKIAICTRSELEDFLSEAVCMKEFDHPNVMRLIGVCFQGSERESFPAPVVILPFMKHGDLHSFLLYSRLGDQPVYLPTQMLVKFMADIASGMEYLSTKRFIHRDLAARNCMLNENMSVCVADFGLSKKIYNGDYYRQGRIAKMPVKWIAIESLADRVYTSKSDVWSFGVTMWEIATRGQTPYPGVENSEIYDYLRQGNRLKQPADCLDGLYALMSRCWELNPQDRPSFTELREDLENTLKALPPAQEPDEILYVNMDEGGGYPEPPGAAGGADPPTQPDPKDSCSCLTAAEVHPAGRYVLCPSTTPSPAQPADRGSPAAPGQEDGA
Assay type: biochemical

| % Axl tyrosine kinase inhibition at 1 μM concentration [%] | Compound |
| --- | --- |
| 100.0 | Cc1nn(C2CCN(C)CC2)cc1-c1cnc(N)c(-c2nc3ncccc3o2)c1 [Example 41.22] |
| 87.8 | Nc1ncc(-c2cccc(C(=O)NC3CC3)c2)cc1-c1nc2cnccc2o1 [Example 8A.7] |
| 99.3 | CC(=O)N1CCC(n2cc(-c3cnc(N)c(-c4nc5cccnc5o4)c3)cn2)CC1 [Example 57.4] |
| 99.1 | Nc1ncc(-c2ccc(CN3CCOCC3)cc2)cc1-c1nc2ccccc2o1 [Example 2.7] |
| 97.7 | CN1CCN(c2ccc(-c3cnc(N)c(-c4nc5cccnc5o4)c3)cc2)CC1 [Example 25.10] |
| 67.3 | NC(=O)c1cccc(-c2cnc(N)c(-c3nc4ccccc4o3)c2)c1 [Example 2.34] |
| 100.0 | Nc1ncc(-c2ccc(N3CCNCC3)cc2)nc1-c1nc2ccccc2o1 [Example 20.11] |
| 96.1 | CN1CCN(C(=O)c2ccc(-c3cnc(N)c(-c4nc5cccnc5o4)c3)cc2)CC1 [Example 45A.49] |
| 92.7 | Nc1ncc(-c2ccc(C(=O)N3CCOCC3)cc2)cc1-c1nc2ncccc2o1 [Example 10A.14] |
| 100.0 | COCc1nn(C2CCN(C)CC2)cc1-c1cnc(N)c(-c2nc3c(F)cccc3o2)c1 [Example 41.34] |
| 97.2 | CCS(=O)(=O)c1cccc(-c2cnc(N)c(-c3nc4ccccc4o3)n2)c1 [Example 20.13] |
| 100.0 | CN1CCC(n2cc(-c3cnc(N)c(-c4nc5c(F)cccc5o4)c3)c(CO)n2)CC1 [Example 41.32] |
| 92.1 | COc1cccc2oc(-c3cc(-c4cnn(C5CCN(C)CC5)c4)cnc3N)nc12 [Example 41.24] |
| 98.5 | CC(=O)N1CCC(n2cc(-c3cnc(N)c(-c4nc5ncccc5o4)c3)cn2)CC1 [Example 57.1] |
| 97.7 | CNS(=O)(=O)c1cccc(-c2cnc(N)c(-c3nc4cnccc4o3)c2)c1 [Example 8A.6] |
| 85.8 | Nc1ncc(-c2cccc(N3CCCCC3)c2)cc1-c1nc2cnccc2o1 [Example 8A.21] |
| 99.8 | CN(C)CCCNC(=O)c1ccc(-c2cnc(N)c(-c3nc4cnccc4o3)c2)cc1 [Example 8A.17] |
| 85.1 | CN(C)S(=O)(=O)c1ccc(-c2cnc(N)c(-c3nc4ccccc4o3)c2)cc1 [Example 2.28] |
| 93.5 | COc1cc(-c2cnc(N)c(-c3nc4ncccc4o3)c2)ccc1OCCCN1CCOCC1 [Example 43C.17] |
| 99.1 | Nc1ncc(-c2ccc(C(=O)N3CCC(N4CCCC4)CC3)cc2)cc1-c1nc2cccnc2o1 [Example 45A.63] |
| 87.7 | CC(C)(C)OC(=O)N1CCC(C(=O)Nc2cccc(-c3cnc(N)c(-c4nc5ccncc5o4)c3)c2)CC1 [Example 11A.3] |
| 98.1 | Nc1ncc(-c2ccc(OC3CCNCC3)cc2)cc1-c1nc2ncccc2o1 [Example 43B.33] |
| 99.9 | CN1CCC(Cn2cc(-c3cnc(N)c(-c4nc5ccccc5o4)c3)cn2)CC1 [Example 41.6] |
| 97.7 | CNCCOc1ccc(-c2cnc(N)c(-c3nc4ncccc4o3)c2)cc1 [Example 43B.26] |
| 99.6 | CN(C)CC(=O)N1CCC(n2cc(-c3cnc(N)c(-c4nc5cccnc5o4)c3)cn2)CC1 [Example 59.7] |

Same assay, conditions: test compound at 1 μM; first value quoted; read-out: % Axl tyrosine kinase inhibition at 1 μM concentration

| inhibition at 1 µM [%] | Compound |
| --- | --- |
| 99.6 | COc1ccc2nc(-c3cc(-c4cnn(C5CCN(C)CC5)c4)cnc3N)oc2c1 [Example 35, 3-(6-methoxy-1,3-benzoxazol-2-yl)-5-[1-(1-methyl-4-piperidyl)pyrazol-4-yl]pyridin-2-amine] |
